Molecules are shown by their SMILES.

Assay [1] concerns the target T1, Beta-secretase 1 (Homo sapiens, UniProt P56817). In words: AlphaScreen Assay: BACE1 activity can be assessed in an AlphaScreen® assay. Compounds to be assessed (e.g. compounds as described in the above examples) are serially diluted 1:4 in DMSO, then plated by diluting 10 μL of compound with 40 μl of assay buffer (1×PBS, 0.01% Tween-20, pH 7.0, 0.05% BSA). The diluted compound is transferred (4 μL per well) to a […] well assay plate and 4 μL of BACE1 enzyme (20 mg/mL) is added and incubated for 15 minutes. This assay uses a probe that is a BACE1 binding sight ligand linked to biotin, which can be displaced by test compound dependent on compound binding affinity. This of biotinylated probe (4 μL) is added and incubated for 1 hour, followed with 4 μL of donor and acceptor bead mixture and incubated for 2 hours. The fluorescent signal is read on a plate reader and the value as a function of compound concentration is used to determine the IC50. (In general: In Alpha technology, singlet oxygen from a donor bead excites a nearby acceptor bead.)

Assay [2] deals with T1, Beta-secretase 1. In words: FP Assay: Compounds are also assessed for BACE1 and Cathepsin D activity using an FP Assay. Compounds to be assessed (e.g. compounds as described in the above examples) are serially diluted 1:3 with DMSO and each concentration point is transferred to a 96 well plate, 6 uL per well, followed by addition of 194 uL of assay buffer (100 mM sodium acetate, pH 4.5 with 0.001% Tween-20). A 10 uL compound sample from this plate is transferred to a well of a 384 well plate and combined with 10 uL per well of BACE1 enzyme (0.3 nM in assay buffer) or Cathepsin D enzyme (1.8 nM in assay buffer) and the plate is incubated at room temperature for 30 minutes.

T1 sequence (P56817 whole entry): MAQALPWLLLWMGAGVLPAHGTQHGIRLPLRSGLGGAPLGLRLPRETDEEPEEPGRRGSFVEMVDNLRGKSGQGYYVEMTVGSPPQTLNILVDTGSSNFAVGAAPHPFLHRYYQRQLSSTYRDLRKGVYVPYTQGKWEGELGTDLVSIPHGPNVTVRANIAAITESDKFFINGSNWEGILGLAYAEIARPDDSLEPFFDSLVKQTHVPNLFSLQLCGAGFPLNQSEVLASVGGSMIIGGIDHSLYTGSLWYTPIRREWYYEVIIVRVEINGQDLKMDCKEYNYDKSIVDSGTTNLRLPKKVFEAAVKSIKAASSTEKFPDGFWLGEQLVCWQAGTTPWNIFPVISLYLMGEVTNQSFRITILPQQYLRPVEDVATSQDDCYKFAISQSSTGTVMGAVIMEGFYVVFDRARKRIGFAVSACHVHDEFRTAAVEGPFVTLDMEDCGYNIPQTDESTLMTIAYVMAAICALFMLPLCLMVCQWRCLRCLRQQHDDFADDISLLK

`C[C@@]1(c2cc(/C=C/c3ccc(F)cc3)ccc2F)CC2(CCC(F)(F)CC2)OC(N)=N1`: the IC50 (in general, the concentration needed to halve the response being measured) in assay [1] amounted to 1.96 µM; in assay [2] it was 13.1 µM.

The record behind these values is ChEMBL document CHEMBL5725252, “Spirocyclic dihydro-thiazine and dihydro-oxazine BACE inhibitors, and compositions and uses thereof” (2016).
